{
  "source": "patent US12439920B2",
  "about": "“Pyridine n-oxide compound and pest control agent” (Nippon Soda Co., Ltd., priority 2019, dated 2025)",
  "format_in_all_cases": "in vivo",
  "key": {"Mythimna separata": {"system": "Mythimna separata", "test": "Test of efficacy on Mythimna separata (treated artificial feed)", "details": "second instar larvae, 1 μl of emulsion (I) (5% active ingredient) in 0.8 g artificial feed, fifth day, 25° C.", "experimental": "5 parts of the compound of the present invention, 93.6 parts of dimethylformamide, and 1.4 parts of polyoxyethylene alkyl aryl ether were mixed and dissolved to prepare emulsion (I) containing 5% of the active ingredient. For a control, 93.6 parts of dimethylformamide and 1.4 parts of polyoxyethylene alkyl aryl ether were mixed and dissolved to prepare emulsion (II). An insecticidal rate was calculated according to the following expression: Insecticidal rate (%)=(The number of dead insects/The number of tested insects)×100 A control rate was calculated according to the following expression: Control rate (%)={1−(Nt)/(Nc)}×100 • Nc: The number of parasites in an untreated plot • Nt: The number of parasites in a spray treated plot 0.8 g of commercially available artificial feed (Insecta LFS, manufactured by Nosan Corp.) and 1 μl of the emulsion (I) were well mixed to obtain test feed. A plastic test container (capacity: 1.4 ml) was packed with 0.2 g of the test feed per treatment plot. Then, two second instar larvae of Mythimna separata were inoculated to each treatment plot. A plastic lid was put on the test container so as to prevent escape of the second instar larvae of Mythimna separata. The container was placed in a thermostat chamber of 25° C. On the fifth day, the insecticidal rate and the food intake were examined. The test was conducted in duplicate. […]"}, "Plutella xylostella [1]": {"system": "Plutella xylostella", "test": "Test of efficacy on Plutella xylostella (cabbage leaf dip)", "details": "125 ppm; cabbage leaves dipped 30 seconds; second instar larvae; after 3 days", "experimental": "5 parts of the compound of the present invention, 93.6 parts of dimethylformamide, and 1.4 parts of polyoxyethylene alkyl aryl ether were mixed and dissolved to prepare emulsion (I) containing 5% of the active ingredient. An insecticidal rate was calculated according to the following expression: Insecticidal rate (%)=(The number of dead insects/The number of tested insects)×100 A control rate was calculated according to the following expression: Control rate (%)={1−(Nt)/(Nc)}×100 • Nc: The number of parasites in an untreated plot • Nt: The number of parasites in a spray treated plot The emulsion (I) was diluted with water such that the concentration of the compound of the present invention was 125 ppm. Cabbage leaves were dipped in the dilution for 30 seconds. The resulting cabbage leaves were placed in a petri dish. Five second instar larvae of Plutella xylostella were released thereto. The petri dish was placed in a thermostat chamber having a temperature of 25° C. and a humidity of 60%. Life and death were determined after 3 days from the release of the insects, and the insecticidal rate was calculated. The test was conducted in duplicate."}, "Aphis craccivora": {"system": "Aphis craccivora", "test": "Test of efficacy on Aphis craccivora (spray on black-eyed peas)", "details": "125 ppm; sprayed; nymphs on black-eyed peas; after 4 days", "experimental": "(§1) 5 parts of the compound of the present invention, 93.6 parts of dimethylformamide, and 1.4 parts of polyoxyethylene alkyl aryl ether were mixed and dissolved to prepare emulsion (I) containing 5% of the active ingredient.\n(§2) An insecticidal rate was calculated according to the following expression: Insecticidal rate (%)=(The number of dead insects/The number of tested insects)×100 A control rate was calculated according to the following expression: Control rate (%)={1−(Nt)/(Nc)}×100 • Nc: The number of parasites in an untreated plot • Nt: The number of parasites in a spray treated plot\nSeedlings of black-eyed peas were raised in 10-cm pots. Aphis craccivora nymphs were inoculated onto primary leaves. The emulsion (I) was diluted with water such that the concentration of the compound of the present invention was 125 ppm. The dilution was sprayed to the black-eyed peas parasitized by the Aphis craccivora nymphs. The black-eyed peas were placed in a thermostat chamber having a temperature of 25° C. and a humidity of 60%. Life and death of Aphis craccivora were determined after 4 days from the spraying, and the insecticidal rate was calculated. The test was conducted in duplicate."}, "Aphis gossypii": {"system": "Aphis gossypii", "test": "Test of efficacy on Aphis gossypii (spray on cucumbers)", "details": "125 ppm; sprayed; first instar larvae on cucumbers; after 5 days", "experimental": "5 parts of the compound of the present invention, 93.6 parts of dimethylformamide, and 1.4 parts of polyoxyethylene alkyl aryl ether were mixed and dissolved to prepare emulsion (I) containing 5% of the active ingredient. An insecticidal rate was calculated according to the following expression: Insecticidal rate (%)=(The number of dead insects/The number of tested insects)×100 A control rate was calculated according to the following expression: Control rate (%)={1−(Nt)/(Nc)}×100 • Nc: The number of parasites in an untreated plot • Nt: The number of parasites in a spray treated plot Cucumbers were sown in a 10-cm pot. An Aphis gossypii female adult was released to the cucumbers after 10 days from sprouting. On the next day, born first instar larvae were left, and the female adult was removed. Emulsion (I) was diluted with water such that the concentration of the compound of the present invention was 125 ppm. The dilution was sprayed to the cucumbers. The cucumbers were placed in a thermostat chamber having a temperature of 25° C. and a humidity of 60%. Life and death of Aphis gossypii were determined after 5 days, and the insecticidal rate was calculated."}, "[2]": {"system": "Phyllotreta striolata adults", "test": "Test of efficacy on Phyllotreta striolata (spray on Qing geng cai seedlings)", "details": "125 ppm, sprayed on Qing geng cai seedlings, after 7 days", "experimental": "as §1, §2\nThe emulsion (I) was diluted with water such that the concentration of the compound of the present invention was 125 ppm to prepare a test chemical. The dilution was sprayed to Qing geng cai seedlings (at the seventh true leaf stage) planted in 10-cm pots. The Qing geng cai seedlings were dried in air and then placed in a plastic cup. Ten Phyllotreta striolata adults were released thereto. The plastic cup was stored in a thermostat chamber having a temperature of 25° C. and a humidity of 65%. Life and death were determined after 7 days from the release of the insects, and the insecticidal rate was calculated. The test was conducted in duplicate."}, "Musca domestica": {"system": "Musca domestica", "test": "Test of efficacy on Musca domestica (treated lump sugar)", "details": "100 ppm on lump sugar; female adults; after 24 hours", "experimental": "as §2\nThe compound of the present invention was diluted with acetone, and the dilution was added dropwise to 1 g of lump sugar such that the concentration was 100 ppm. The lump sugar was placed in a plastic cup, ten Musca domestica female adults were released, and a lid was put on the cup. The plastic cup was stored at 25° C. Life and death were determined after 24 hours from the release of the insects, and the insecticidal rate was calculated. The test was conducted in duplicate."}, "Plutella xylostella [3]": {"system": "Plutella xylostella", "test": "Test of soil irrigation treatment against Plutella xylostella", "details": "investigated after 3 days; for Control rate % 21 days after: first instar larvae inoculated 21 days after transplant; for Control rate % 28 days after: first instar larvae inoculated 28 days after transplant", "experimental": "5 parts of the compound of the present invention, 93.6 parts of dimethylformamide, and 1.4 parts of polyoxyethylene alkyl aryl ether were mixed and dissolved to prepare emulsion (I) containing 5% of the active ingredient. An insecticidal rate was calculated according to the following expression: Insecticidal rate (%)=(The number of dead insects/The number of tested insects)×100 A control rate was calculated according to the following expression: Control rate (%)={1−(Nt)/(Nc)}×100 • Nc: The number of parasites in an untreated plot • Nt: The number of parasites in a spray treated plot The emulsion (I) was diluted with water such that the concentration of the compound of the present invention was 500 ppm or 250 ppm. Then, 500 mL of the dilution was subjected to irrigation treatment per 128-hole cell tray in which cabbage seedlings were planted. The cell seedlings were transplanted to No. 4 pots and maintained in a thermostat chamber having a temperature of 25° C. and a humidity of 65%. Then, 50 first instar larvae of Plutella xylostella were inoculated on the whole of a cabbage after 21 days and 28 days from the transplant, respectively. The life and the death of Plutella xylostella were investigated after 3 days, and a control rate was calculated according to the following expression. The test was conducted in quadruplicate. Control rate (%)={1−(Nt)/(Nc)}×100 • Nc: The number of parasites in an untreated plot • Nt: The number of parasites in a spray treated plot"}, "[4]": {"details": "250 ppm soil irrigation of cabbage seedlings"}, "[5]": {"details": "500 ppm soil irrigation of cabbage seedlings"}},
  "data": [
    {"compound": "CCS(=O)(=O)c1cc(C2CC2)c[n+]([O-])c1-c1nc2cc(S(=O)(=O)C(F)(F)F)ccc2o1", "note": "[A-1, 5-cyclopropyl-3-(ethylsulfonyl)-2-(5-((trifluoromethyl)sulfonyl)benzo[d]oxazol-2-yl)pyridine 1-oxide]", "values": [
      {"measurement": "insecticidal rate", "setting": "Mythimna separata; stated as alternative to food intake ('or')", "result": 100, "unit": "%"},
      {"measurement": "food intake as compared with the control plot", "setting": "Mythimna separata; stated as alternative to insecticidal rate ('or')", "result": "≤ 10", "unit": "%"},
      {"measurement": "insecticidal rate", "setting": "Plutella xylostella [1]", "result": "≥ 80", "unit": "%"},
      {"measurement": "insecticidal rate", "setting": "Aphis craccivora", "result": "≥ 80", "unit": "%"},
      {"measurement": "insecticidal rate", "setting": "Aphis gossypii", "result": "≥ 80", "unit": "%"},
      {"measurement": "insecticidal rate", "setting": "[2]", "result": "≥ 80", "unit": "%"},
      {"measurement": "insecticidal rate", "setting": "Musca domestica", "result": "≥ 80", "unit": "%"},
      {"measurement": "Control rate % 21 days after", "setting": "Plutella xylostella [3]; [4]", "result": 98, "unit": "%"},
      {"measurement": "Control rate % 28 days after", "setting": "Plutella xylostella [3]; [4]", "result": 99, "unit": "%"},
      {"measurement": "Control rate % 21 days after", "setting": "Plutella xylostella [3]; [5]", "result": 100, "unit": "%"},
      {"measurement": "Control rate % 28 days after", "setting": "Plutella xylostella [3]; [5]", "result": 100, "unit": "%"}
    ]}
  ]
}
